In US7749969B2, “N- or C- terminally modified small peptides” (Zealand Pharma A/S, priority 2005, dated 2010):
Square brackets hold non-standard residues; d marks the D form. Peptide text beside a SMILES is read from it. * marks the point of attachment. Bz = O=C(c1ccccc1)*

What was measured:
[1] = tested on: calcium-induced arrhythmias; assay: Calcium-induced arrhythmia model (time lag to conduction block after CaCl2 infusion); format: in vivo, mouse; conditions: male NMRI mice; 1 nmol/kg i.v. 3 min before CaCl2 infusion; (tarr test compound − tarr vehicle)×100/tarr vehicle
Method: Peptides suitable for administration to cardiac cells can be identified in an in vivo model of calcium-induced arrhythmias according to the model of Lynch et al. (1981) J Cardiovasc. Pharmacol. 3:49-60. Mice (25-30 g) are anaesthetized with a neurolept anaesthetic combination and an i.v. cannula is inserted into the tail vein. A lead II ECG signal is recorded continuously by positioning a stainless steel ECG electrodes on the right forelimb and on the left hind limb. The ground electrode is placed on the right hind limb. The signal is amplified (×5.000-10.000) and filtered (0.1-150 Hz) via a Hugo Sachs Electronic model 689 ECG module. The analogue signal is digitized via a 12 bit data acquisition board (Data Translation model DT321) and sampled at 1000 Hz using the Notocord HEM 3.1 software for Windows NT. After a 10-minute equilibration period, the test sample of compound is injected into the tail vein. Mice pre-treated with buffer are tested as a measure of the control level in untreated animals. The injection volume is 100 μl in all experiments.
Infusion of CaCl2 (30 mg/ml, 0.1 ml/min≈100 mg/kg/min (calcium chloride-2-hydrate, Riedel-de Haën, Germany)) is started 3 min after i.v. administration of drug or vehicle. The time lag to onset of 2nd degree AV-block is determined as the time from the start of CaCl2 infusion until the first arrhythmic event occurs. An event of 2nd degree AV-block is defined as intermittent failure of the AV conduction characterised by a P-wave without the concomitant QRS complex.
Responses are expressed relative to the time until 2nd degree AV-block occurred in vehicle treated mice. The maximal effect of compounds (e.g., N- or C-terminally modified peptides of the invention, AAP, AAP10 or controls) is determined. […] Preferably, the compounds provide at least about 40% of the activity of AAP, for example at least about 50% of the activity of AAP, such as about 60% of the activity of AAP, for example at least about 70% of the activity of AAP, such as at least about 80% of the activity of AAP, for example at least about 90% of the activity of AAP, for example at least about substantially the same activity of AAP, such as about 110% of the activity of AAP, for example at least about 120% of the activity of AAP, such as at least about 130% of the activity of AAP, for example at least about 140% of the activity of AAP, such as about 150% of the activity of AAP, for example at least about 160% of the activity of AAP, such as at least about 170% of the activity of AAP, for example at least about 180% of the activity of AAP, preferably at least about 190% of the activity of AAP, more preferably at least about 200 or greater % of the activity of AAP (i.e., the compounds show time lags of approximately the same duration as induced by AAP).
The anti-arrhythmic effect of the present compounds was tested in a model of calcium-induced arrhythmias according to the model of Lynch et al., J. Cardiovasc. Pharmacol. (1981), 3: 49-60. Male NMRI mice (25-30 grams; Bomholdtgaard, L I. Skendsved, Denmark) were anesthetized with a neurolept anesthetic combination (Hynorm® (fentanyl citrate 0.315 mg/mL and fuanisone 10 mg/mL) and midazolam at 5 mg/mL. Commercial solutions of Hynorm® and midazolam were diluted 1:1 in distilled water, and one part Hynorm® was mixed with one part diluted midazolam. Anesthesia is induced by s.c. administration of this solution in a dose of 50-75 μL/10 gram mouse.
An intravenous cannula was inserted into the tail vein. The lead II ECG signal was recorded continuously by positioning of stainless steel ECG electrodes on the right forelimb and on the left hind limb. The ground electrode was placed on the right hind limb. The signal was amplified (×5.000-10.000) and filtered (0.1-150 Hz) via a Hugo Sachs Electronic model 689 ECG module. […]

[2] = PAMPA-BBB permeability test (brain lipid artificial membrane); format: in vitro ADME; conditions: brain lipid 20% in dodecane; pH 7.4 buffer; 14 hr diffusion
From the text: The compounds of the invention show desirable pharmacokinetic profiles as evidenced from data obtained when testing the permeability of the compounds across a synthetic biomimetic membrane that resembles the blood brain barrier (PAMPA-BBB) and the compounds ability to inhibit the activity of cytochrome P 450 oxidase isozyme 3A4. Normally it is desirous to avoid having drugs targeting the cardiovascular systems and other non-CNS ailments such as osteoporosis being less able to cross the blood brain barrier and thus penetrate into the central nervous system.
Permeability test: Compounds in DMSO solution are added to pH 7.4 buffer in a 96 well plate (“donor”). The buffer is placed in contact with a 96 well filter plate in which the pours have been filled with an artificial membrane (2% phosphatidyl choline in dodecane). The top wells of the filter plate are filled with aqueous buffer (“acceptor”). Compound molecules diffuse into the artificial membrane and then into the acceptor buffer. After a 14 hr diffusion experiment, the donor and acceptor wells are measured on a UV plate reader and compared to a standard. The experiment is termed “PAMPA”. Permeability-BBB: The PAMPA experiment above is repeated using brain lipid (20% in dodecane) to provide a prediction of blood-brain barrier permeation by passive diffusion.

CYP 3A4 = CYP 3A4 (Homo sapiens, UniProt P08684); assay: Cytochrome P450 oxidase (CYP) inhibition, fluorescent probe; format: in vitro ADME; conditions: recombinant human CYP isozyme 3A4
Sequence of CYP 3A4 (P08684 whole entry): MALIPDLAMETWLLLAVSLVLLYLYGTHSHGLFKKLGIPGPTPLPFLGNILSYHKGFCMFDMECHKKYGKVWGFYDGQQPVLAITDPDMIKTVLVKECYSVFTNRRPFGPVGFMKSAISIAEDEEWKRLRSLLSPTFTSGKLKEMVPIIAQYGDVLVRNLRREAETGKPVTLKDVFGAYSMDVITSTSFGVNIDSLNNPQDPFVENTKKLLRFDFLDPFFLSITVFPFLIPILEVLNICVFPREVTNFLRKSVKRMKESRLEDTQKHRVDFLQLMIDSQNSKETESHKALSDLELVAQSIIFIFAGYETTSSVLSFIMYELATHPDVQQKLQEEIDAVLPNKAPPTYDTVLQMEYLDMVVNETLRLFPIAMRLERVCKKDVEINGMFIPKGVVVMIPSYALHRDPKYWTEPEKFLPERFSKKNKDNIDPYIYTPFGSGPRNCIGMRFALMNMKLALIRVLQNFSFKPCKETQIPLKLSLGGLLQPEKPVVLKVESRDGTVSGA
From the text: Cytochrome P450 enzymes (CYPs) constitute a superfamily of heme proteins involved in the metabolism of endogenous and exogenous compounds in living organisms. In particular, a number of CYP isozymes are important in the oxidative metabolism of drug molecules. Interactions with these enzymes could lead to altered pharmacokinetic parameters, such as half life, Cmax, or AUC of other co-administered drug molecules. To reduce this kind of interaction in vitro screening of drug candidates for inhibition of drug-metabolizing CYPs has been carried out.
Cytochrome P oxidase (CYP) Inhibition: The compound solution is added to a mixture of recombinant human CYP isozymes, NADPH regenerating solution, buffer, and “probe” compounds for each isozyme. The degree of reduction in the rate of metabolism of the probe to a fluorescent metabolite is an indication of the potential CYP inhibition of the test compound. The CYP 450 isozyme tested is 3A4.

Compound | % response (increase of time lag to onset of arrhythmias relative to vehicle) [1] | PAMPA-BBB [2] | CYP450 Inhibition at 3 μM (% Inhibition) CYP 3A4 (CYP 3A4)
NC(=O)CNC(=O)[C@H](CC(N)=O)NC(=O)Cc1cc(=O)oc2cc(O)ccc12 [Compound 1, N-(7-hydroxycoumarin-4-acetyl)-Asn-Gly-NH2] | 20.9% | – | –
NC(=O)[C@H](Cc1ccc(O)cc1)NC(=O)CNC(=O)CO [Compound 2, N-(hydroxyacetyl)-Gly-Tyr-NH2] | 48.7% | – | –
NC(=O)C[C@H](NC(=O)CS)C(=O)N[C@@H](Cc1ccc(O)cc1)C(N)=O [Compound 7, N-(thiohydroxyacteyl)-Asn-Tyr-NH2] | – | 0 10^−6 cm/s | <15 % Inhibition
CC(=O)OCC(=O)N[C@@H](CC(N)=O)C(=O)N[C@@H](Cc1ccc(O)cc1)C(N)=O [Compound 8] | 16.5% | 0 10^−6 cm/s | <15 % Inhibition
NCC(=O)N[C@@H](CC(N)=O)C(=O)NCc1ccc2ccc3cccc4ccc1c2c34 [Compound 12, H-Gly-Asn-NH(pyrenylmethyl)] | 38.0% | 0 10^−6 cm/s | <15 % Inhibition
NC(=O)C[C@@H](NC(=O)Cc1cc(=O)oc2cc(O)ccc12)C(=O)NCC(=O)O [Compound 15, N-(7-hydroxycoumarin-4-acetyl)-D-Asn-Gly-OH] | 28.5% | – | –
COCC(=O)N[C@@H](CC(N)=O)C(=O)N[C@@H](Cc1ccc(O)cc1)C(N)=O [Compound 16, (Methoxyacetyl)-Asn-Tyr-NH2] | – | 0 10^−6 cm/s | <15 % Inhibition
N[C@@H](CCCCNC(=O)c1ccc([N+](=O)[O-])cc1)C(=O)NCC(=O)O [WO2004/048400 7, H-K(4-nitrobenzoyl)-G-OH, reference compound] | – | – | 15–25 % Inhibition
CN(CC(=O)O)C(=O)[C@@H](N)CCCCNC(=O)c1ccc([N+](=O)[O-])cc1 [WO2004/048400 8, H-K(4-nitrobenzoyl)-Sar-OH, reference compound] | – | – | 15–25 % Inhibition
N[C@H](CCCCNC(=O)c1ccccc1)C(=O)NCC(=O)O [WO2004/048400 23, H-DLys(benzoyl)-G-OH, reference compound] (H-[dK](Bz)-Gly-OH) | – | – | 15–25 % Inhibition
COc1ccc(CNC(=O)C[C@H](N)C(=O)N[C@H](C)C(=O)O)cc1 [WO2004/048400 80, H-Asn(4-methoxybenzyl)-DAla-OH, reference compound] | – | – | 15–25 % Inhibition
H-Gly-Asn-NH(4-nitrophenyl) [Compound 10] | 38.0% | 0 10^−6 cm/s | <15 % Inhibition
